Molecules are shown by their SMILES.

Experimental findings from USRE46698E1, “Use of cyclohexanol derivatives as antimicrobial active compounds” (MERCK PATENT GMBH, priority 2011, dated 2018) are described below.

This experiment concerns S. epidermidis (ATCC 12228). As to the kind of experiment: Growth inhibition by optical density, Bioscreen C (Example 3). The class given is cell-based, Staphylococcus epidermidis. The following applies: 1st experiment; 1.0% sample in water/ethanol (12% of ethanol) diluted 1 to 2 with bacteria suspension; 37° C.; negative control 0.80. How it is done:
For sample preparation, the substances being investigated are each dissolved or homogeneously dispersed in an amount of 1.0% in a water/ethanol mixture (12% of ethanol) and subsequently diluted with bacteria suspension in the ratio 1 to 2. S. epidermidis (ATCC 12228) is pre-incubated under aerobic conditions for 24 h at 35° C. on CASO agar (Merck 1.05458). A bacteria suspension having an optical density (OD) of about 1.0 is subsequently prepared in CASO broth (Merck 1.05459, double-concentrated) and diluted again 1:10 in CASO broth. 150 μl of freshly prepared sample are added to 150 μl of bacteria suspension per well. The optical density is determined over the course of time at 37° C. using a Bioscreen C™ analyser compared with the negative control (=vehicle without test substance). Compared with the negative control, reduced optical densities confirm growth-inhibiting substance actions
Result as optical density of the bacteria suspension after an exposure time of 20 hours: […]

On to `CCOC(=O)C1CCCCC1O` (stereo not shown) [Substance I-2], for which the “OD20h, optical density of the bacteria suspension after 20 hours” value is listed as 0.30.
